From ChEMBL document CHEMBL1201862, “PubChem BioAssay data set” (2004)
Values belong to the compound of their own block, whether it stands above or below them. Calls of active or inactive are those of the source.

Tests used:
[1] = target: Peroxisome proliferator-activated receptor gamma/Nuclear receptor coactivator 1 (Homo sapiens, UniProt P37231); assay: (§1) TR-FRET dose response biochemical High Throughput Screening assay for agonists of the steroid receptor coactivator 1 (SRC-1) recruitment by the peroxisome proliferator-activated receptor gamma (PPAR gamma): non-selective agonists. [Related pubchem assays (depositor defined):AID1300, AID1808, AID504735, AID631]; assay type: protein assay
[2] = target: Peroxisome proliferator-activated receptor gamma/Nuclear receptor coactivator 3 (Homo sapiens, UniProt P37231); assay: as §1, with “3 (SRC-3)” for “1 (SRC-1)”, “assays: 1301 (Confirmation screen.), 1048 (Primary screen.)]” for “assays (depositor defined):AID1300, AID1808, AID504735, AID631]”; assay type: functional
[3] = target: Peroxisome proliferator-activated receptor gamma/Nuclear receptor coactivator 2 (Homo sapiens, UniProt P37231); assay: TR-FRET dose response biochemical High Throughput Screening assay for agonists of the steroid receptor coactivator 2 (SRC-2) recruitment by the peroxisome proliferator-activated receptor gamma (PPAR gamma): non-selective agonists. [Related pubchem assays: 1297, 1032 ]; assay type: functional
[4] = target: Troponin, cardiac muscle (Homo sapiens, UniProt P19429+P45379+P63316); assay: Fluorescence-based biochemical high throughput dose response assay for activators of the calcium sensitivity of cardiac Regulated Thin Filaments (RTF). [Related pubchem assays (depositor defined):AID493008, AID493018, AID504382, AID504383]; assay type: protein-complex assay
[5] = target: T1, Short transient receptor potential channel 4 (Mus musculus, UniProt Q9QUQ5); assay: block of DAMGO-driven TRPC4 calcium entry – cell-based, HEK293 TRPC4/mu-opioid, Fluo-4 calcium, dose response (AID 434942); assay type: functional;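 further: potency of inhibitors blocking the TRPC4 calcium response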
T1 sequence (Q9QUQ5 whole entry): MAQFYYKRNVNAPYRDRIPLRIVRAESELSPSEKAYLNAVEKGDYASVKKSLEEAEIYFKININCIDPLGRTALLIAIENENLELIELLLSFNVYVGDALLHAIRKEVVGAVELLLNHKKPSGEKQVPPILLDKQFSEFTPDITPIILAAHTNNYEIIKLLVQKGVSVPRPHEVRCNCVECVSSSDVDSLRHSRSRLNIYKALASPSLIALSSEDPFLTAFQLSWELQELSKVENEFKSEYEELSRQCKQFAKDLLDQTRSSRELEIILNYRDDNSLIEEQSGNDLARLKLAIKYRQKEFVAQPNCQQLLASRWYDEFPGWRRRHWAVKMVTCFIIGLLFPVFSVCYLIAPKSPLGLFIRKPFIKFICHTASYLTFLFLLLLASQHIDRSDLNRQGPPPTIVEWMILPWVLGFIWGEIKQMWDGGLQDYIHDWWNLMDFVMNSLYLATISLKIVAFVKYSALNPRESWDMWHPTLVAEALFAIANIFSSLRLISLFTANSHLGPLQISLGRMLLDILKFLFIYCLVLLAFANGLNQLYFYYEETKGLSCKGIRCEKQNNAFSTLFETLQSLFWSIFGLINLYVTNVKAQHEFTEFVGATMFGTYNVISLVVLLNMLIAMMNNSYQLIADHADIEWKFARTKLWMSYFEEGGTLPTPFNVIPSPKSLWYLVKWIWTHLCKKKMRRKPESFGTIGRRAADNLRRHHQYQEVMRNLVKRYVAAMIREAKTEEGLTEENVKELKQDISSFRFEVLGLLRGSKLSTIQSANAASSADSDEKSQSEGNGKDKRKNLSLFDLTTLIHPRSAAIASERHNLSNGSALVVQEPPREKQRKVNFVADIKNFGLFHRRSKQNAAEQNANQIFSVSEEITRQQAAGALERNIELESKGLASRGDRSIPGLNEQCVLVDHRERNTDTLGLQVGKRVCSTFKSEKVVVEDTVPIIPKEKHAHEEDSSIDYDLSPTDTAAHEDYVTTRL

[6] = target: T2, Ubiquitin-conjugating enzyme E2 N (Homo sapiens, UniProt P61088); assay type: functional;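 further: Dose-response confirmation in a TR-FRET assay detecting UBC13-driven polyubiquitin chain formation, inhibition measured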
T2 sequence (P61088 whole entry): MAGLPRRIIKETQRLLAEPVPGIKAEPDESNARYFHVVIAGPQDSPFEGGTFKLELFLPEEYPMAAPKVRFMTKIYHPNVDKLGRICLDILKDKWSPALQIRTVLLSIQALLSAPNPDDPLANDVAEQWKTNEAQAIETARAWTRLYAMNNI

[7] = target: Eukaryotic translation initiation factor 4E (Mus musculus, UniProt P63073); assay: blockers of eIF4G binding by eIF4E – biochemical, TR-FRET, dose response (AID 855); assay type: functional;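 further: potency for disrupting eIF4E binding to eIF4GI seen as loss of FRET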
[8] = target: T3, Heat shock factor protein 1 (Mus musculus, UniProt P38532); assay: decrease of HSF1-responsive luciferase luminescence – cell-based, NIH3T3, dose retest, confirmation (AID 2382); assay type: functional;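 further: NIH3T3 fibroblasts with HSF1-driven luciferase reporter stressed by proteasome inhibitor MG132; luminescence from HSF1-driven luciferase expression after 8 hours of MG132 stress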
T3 sequence (P38532 whole entry): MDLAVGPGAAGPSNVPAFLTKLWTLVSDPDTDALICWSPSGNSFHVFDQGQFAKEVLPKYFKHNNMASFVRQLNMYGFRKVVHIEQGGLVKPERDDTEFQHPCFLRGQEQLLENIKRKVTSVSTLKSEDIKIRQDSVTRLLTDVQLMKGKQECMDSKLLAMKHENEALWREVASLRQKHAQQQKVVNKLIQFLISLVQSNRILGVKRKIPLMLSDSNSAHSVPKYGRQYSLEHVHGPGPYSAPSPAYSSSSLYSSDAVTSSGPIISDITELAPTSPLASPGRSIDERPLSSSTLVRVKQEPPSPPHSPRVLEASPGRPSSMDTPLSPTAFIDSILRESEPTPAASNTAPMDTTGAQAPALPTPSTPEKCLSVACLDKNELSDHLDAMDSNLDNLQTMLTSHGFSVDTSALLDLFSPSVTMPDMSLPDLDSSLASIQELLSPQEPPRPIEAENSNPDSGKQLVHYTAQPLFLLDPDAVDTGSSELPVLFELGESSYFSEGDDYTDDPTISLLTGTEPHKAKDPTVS

[9] = target: Luciferin 4-monooxygenase (Photinus pyralis, UniProt P08659); assay: inhibition of purified Photinus pyralis luciferase – biochemical, luminescence, dose response (AID 1891)
[10] = target: Nucleotide-binding oligomerization domain-containing protein 2 (Homo sapiens, UniProt Q9HC29); assay: inhibition of NOD2-driven NF-kB reporter – cell-based, luminescence, uHTS, HEK293 (AID 1566); assay type: functional
[11] = target: Paired box protein Pax-8 (Homo sapiens, UniProt Q06710); assay: PAX8 transcriptional activity inhibition in RMG-I – RMG-I cells, luciferase, cherry-pick, dose response (AID 687027); assay type: functional, cell-based;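 further: luciferase reporter driven by Pax8 target thyroperoxidase promoter measured by SteadyGlo luminescence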

EC50 [1]: 41.9 µM (inactive)
EC50 [2]: > 79.4 µM (not active)
EC50 [3]: 32.3 µM (not active)
EC50 [4]: > 71.4 µM (inactive)
Compound: COC(=O)c1sc(N2C(=O)C(O)=C(C(=O)c3ccc(C)o3)C2c2ccc(F)cc2)nc1C (stereo not given)

EC50 [5]: 0.473 µM (active)
Compound: Cc1ccc2cc(CN(CCCN3CCOCC3)C(c3nnnn3Cc3ccco3)C(C)C)c(O)nc2c1C (stereo not given)

IC50 [6]: > 20 µM (inactive)
IC50 [7]: 50 µM (inactive)
Compound: Cc1ccc(-c2csc(NC(=O)CSc3nc4ccccc4c(=O)n3CCCN(C)C)n2)cc1

EC50 [8]: 0.309 µM (active)
EC50 [9]: > 112 µM (not active)
EC50 [10]: > 20 µM (inactive)
AC50 [11]: 1.29 µM (active)
Compound: COc1ccc(N(Cc2cc3cc(OC)ccc3[nH]c2=O)S(=O)(=O)c2ccc(NC(C)=O)cc2)cc1

EC50 [5]: 5.96 µM (active)
Compound: N=c1sccn1CC(=O)Nc1ccccc1Oc1ccccc1

EC50 [5]: 0.0373 µM (active)
Compound: COc1cc(CNC2CCCC2)c(Br)cc1OC1CCCC1

EC50 [4]: > 71.4 µM (inactive)
Compound: Oc1[nH]nc(C(F)(F)F)c1/C=N/Cc1ccccc1Cl

IC50 [7]: > 64 µM (inactive)
Compound: Sc1nnc(-c2ccco2)n1/N=C/c1ccc(Cl)cc1Cl
